This passage reports thermal shift results from paper PMC11626117 (Proceedings of the National Academy of Sciences of the …, 2024).

This test concerns the target CoaX (Rv3600c) (Mycobacterium tuberculosis, UniProt P9WPA1).

Sequence of CoaX (Rv3600c) (P9WPA1 whole entry, looked up): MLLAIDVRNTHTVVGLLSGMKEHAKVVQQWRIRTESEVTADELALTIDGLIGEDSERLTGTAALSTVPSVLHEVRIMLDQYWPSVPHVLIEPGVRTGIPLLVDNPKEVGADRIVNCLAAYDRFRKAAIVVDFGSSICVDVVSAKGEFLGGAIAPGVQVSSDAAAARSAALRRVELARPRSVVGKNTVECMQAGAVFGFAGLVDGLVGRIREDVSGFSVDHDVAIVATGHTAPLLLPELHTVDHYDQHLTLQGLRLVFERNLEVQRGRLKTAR

As to `Nc1ncnc2c1ncn2[C@@H]1O[C@H](COP(=O)(O)OP(=O)(O)OP(O)(O)=S)[C@@H](O)[C@H]1O` [ATPγS], the thermal shift result was “increasing concentrations of ATPγS in the presence of pantothenate had the largest effect”. The entry for `CC(C)(CO)[C@@H](O)C(=O)NCCC(=O)O` [pantothenate] is “Increasing pantothenate concentration had a subtle effect on CoaX thermostability”.
